# Test results from patent publication US10526385B2, “YAP protein inhibiting polypeptide and application thereof” (BAO KANG BIOMEDICAL HEALTHCARE INC, priority 2013, dated 2020).
# Like-named read-outs stand apart in the source and are kept apart here. Where a SMILES comes first, the peptide text is derived from it. Bridges are numbered along the chain shown (N, C = ends). [ ]: non-standard residue; d: D form. Phe(3-Cl) = N[C@@H](Cc1cccc(Cl)c1)C(=O)O; hCys = N[C@@H](CCS)C(=O)O; Nle = CCCC[C@H](N)C(=O)O
# Legend:
# [1] = test system: hepatoma cell line BEL7404; format: cell-based; conditions: for YAP inhibitory activity: summary of Table 8 in words
# Method: (§1) The hepatoma cell line BEL7404 (purchased from The Chinese Academy of Sciences cell bank) was a cell line with high expression of YAP protein; HCCLM3 (purchased from The Chinese Academy of Sciences cell bank) was a cell line with low expression of YAP protein. The hepatoma cell lines (BEL7404 or HCCLM3) were inoculated into a 96-well plate at the concentration of 2000 cells/well, and incubated overnight in RPMI1640 containing 1% bovine serum at 37° C. The hepatoma cell lines were treated with polypeptides having different concentrations at 37° C. for 72 h.
# (§2) Moreover, IC50 values of the cells in 1.1 were determined using CCK-8 kit.
# (§3) The polypeptide represented by SEQ ID NO.:1 was further modified. The IC50 values of the polypeptides at a concentration of 1% in cell cultivating for 72 h were measured.
# [2] = test system: hepatoma cell line HCCLM3; format: cell-based
# Method: as §1, §2, §3
# [3] = Table 8, at a concentration of 1% in cell cultivating for 72 h, unit inferred, read-out: IC50 BEL7404
# [4] = Table 8, at a concentration of 1% in cell cultivating for 72 h, unit inferred, read-out: IC50 HCCLM3
Molecule,IC50 ([1]; 72 h) [µM],IC50 ([2]; 72 h) [µM],"IC50 [1, 3] [µM]","IC50 [2, 4] [µM]",also measured
CSCC[C@H](NC(=O)[C@H](CCCNC(=N)N)NC(=O)[C@@H](N)CCCNC(=N)N)C(=O)N[C@@H](CCCCN)C(=O)N[C@@H](Cc1c[nH]c2ccccc12)C(=O)N[C@@H](CCCCN)C(=O)N[C@@H](CCCCN)C(=O)N1CCC[C@H]1C(=O)N[C@@H](CCC(N)=O)C(=O)NCC(=O)N[C@@H](CCC(N)=O)C(=O)NCC(=O)N1CCC[C@H]1C(=O)N1CCC[C@H]1C(=O)N[C@@H](CO)C(=O)NCC(=O)N1CCC[C@H]1C(=O)NCC(=O)N[C@@H](CCC(N)=O)C(=O)N1CCC[C@H]1C(=O)N[C@@H](C)C(=O)N1CCC[C@H]1C(=O)N[C@@H](C)C(=O)O [SEQ ID NO.: 16],242 ± 27.2,> 1000,–,–,–
VP-Hcy-(3-Cl)F-LKK-Nle-PASCFKPP RRMKWKK [SEQ ID NO.: 31],–,–,–,–,YAP inhibitory activity [1]: best inhibitory activity
CCCC[C@@H]1NC(=O)[C@H](CCCCN)NC(=O)[C@H](CCCCN)NC(=O)[C@H](CC(C)C)NC(=O)[C@@H](NC(=O)[C@H](Cc2cccc(Cl)c2)NC(=O)[C@@H]2CCCN2C(=O)[C@H](C)N)CCSSC[C@@H](C(=O)N[C@@H](CCCCN)C(=O)N2CCC[C@H]2C(=O)N2CCC[C@H]2C(=O)N[C@@H](CCCNC(=N)N)C(=O)N[C@@H](CCCNC(=N)N)C(=O)N[C@@H](CCSC)C(=O)N[C@@H](CCCCN)C(=O)N[C@@H](Cc2c[nH]c3ccccc23)C(=O)N[C@@H](CCCCN)C(=O)N[C@@H](CCCCN)C(=O)O)NC(=O)[C@H](Cc2ccccc2)NC(=O)[C@H](CO)NC(=O)[C@H](CC(=O)O)NC(=O)[C@@H]2CCCN2C1=O [compound 25] (H-AP[Phe(3-Cl)][hCys]LKK[Nle]PDSFCKPPRRMKWKK-OH; disulfide 4-13),–,–,119 ± 7.1,> 1000,–
CSCC[C@H](NC(=O)[C@H](CCCNC(=N)N)NC(=O)[C@@H](N)CCCNC(=N)N)C(=O)N[C@@H](CCCCN)C(=O)N[C@@H](Cc1c[nH]c2ccccc12)C(=O)N[C@@H](CCCCN)C(=O)N[C@@H](CCCCN)C(=O)N1CCC[C@H]1C(=O)N[C@H](C(=O)NCC(=O)N[C@H](C(=O)N[C@H](C(=O)N[C@@H](CO)C(=O)NCC(=O)N1CCC[C@H]1C(=O)N[C@@H](C)C(=O)N[C@@H](C)C(=O)N[C@H](C(=O)N1CCC[C@H]1C(=O)N[C@H](C(=O)N[C@@H](C)C(=O)N[C@@H](CCC(N)=O)C(=O)N[C@@H](Cc1c[nH]cn1)C(=O)O)[C@@H](C)O)[C@@H](C)O)C(C)C)C(C)C)[C@@H](C)O [SEQ ID NO.: 19],763 ± 31.5,> 1000,–,–,–
CC[C@H](C)[C@H](NC(=O)[C@H](CCCCN)NC(=O)[C@H](CCCCN)NC(=O)[C@H](Cc1c[nH]c2ccccc12)NC(=O)[C@H](CCCCN)NC(=O)[C@H](CCSC)NC(=O)[C@H](CCCNC(=N)N)NC(=O)[C@@H](N)CCCNC(=N)N)C(=O)N[C@H](C(=O)N[C@@H](Cc1c[nH]cn1)C(=O)N[C@H](C(=O)N[C@@H](CCCNC(=N)N)C(=O)NCC(=O)N[C@@H](CC(=O)O)C(=O)N[C@@H](CO)C(=O)N[C@@H](CCC(=O)O)C(=O)N[C@H](C(=O)N[C@@H](CC(=O)O)C(=O)N[C@@H](CC(C)C)C(=O)N[C@@H](CCC(=O)O)C(=O)N[C@@H](C)C(=O)N[C@@H](CC(C)C)C(=O)N[C@@H](Cc1ccccc1)C(=O)O)[C@@H](C)O)C(C)C)C(C)C [SEQ ID NO.: 17],211 ± 44.2,> 1000,–,–,–
CSCC[C@H](NC(=O)[C@H](CCCNC(=N)N)NC(=O)[C@@H](N)CCCNC(=N)N)C(=O)N[C@@H](CCCCN)C(=O)N[C@@H](Cc1c[nH]c2ccccc12)C(=O)N[C@@H](CCCCN)C(=O)N[C@@H](CCCCN)C(=O)N[C@H](C(=O)N[C@@H](C)C(=O)NCC(=O)N[C@@H](C)C(=O)N[C@@H](CC(C)C)C(=O)N[C@H](C(=O)N1CCC[C@H]1C(=O)N[C@@H](CCC(N)=O)C(=O)N[C@@H](Cc1c[nH]cn1)C(=O)N[C@H](C(=O)N[C@@H](CCCNC(=N)N)C(=O)N[C@@H](C)C(=O)N[C@@H](Cc1c[nH]cn1)C(=O)N[C@@H](CO)C(=O)N[C@@H](CO)C(=O)N1CCC[C@H]1C(=O)O)C(C)C)[C@@H](C)O)[C@@H](C)O [SEQ ID NO.: 18],816 ± 14.4,> 1000,–,–,–
CCCC[C@@H]1NC(=O)[C@H](CCCCN)NC(=O)[C@H](CCCNC(=N)N)NC(=O)[C@H](CC(C)C)NC(=O)[C@@H](NC(=O)[C@H](Cc2cccc(Cl)c2)NC(=O)[C@@H]2CCCN2C(=O)[C@@H](N)C(C)C)CCSSC[C@@H](C(=O)N[C@@H](CCCCN)C(=O)N2CCC[C@H]2C(=O)N2CCC[C@H]2C(=O)N[C@@H](CCCNC(=N)N)C(=O)N[C@@H](CCCNC(=N)N)C(=O)N[C@@H](CCSC)C(=O)N[C@@H](CCCCN)C(=O)N[C@@H](Cc2c[nH]c3ccccc23)C(=O)N[C@@H](CCCCN)C(=O)N[C@@H](CCCCN)C(=O)O)NC(=O)[C@H](Cc2ccccc2)NC(=O)[C@H](CO)NC(=O)[C@H](CCC(=O)O)NC(=O)[C@@H]2CCCN2C1=O [compound 22] (H-VP[Phe(3-Cl)][hCys]LRK[Nle]PESFCKPPRRMKWKK-OH; disulfide 4-13),–,–,67.9 ± 6.4,181 ± 21.7,–
CCCC[C@@H]1NC(=O)[C@@H](NC(=O)[C@H](Cc2cccc(Cl)c2)NC(=O)[C@@H]2CCCN2C(=O)[C@H](C)N)CCSSC[C@@H](C(=O)N[C@@H](CCCCN)C(=O)N2CCC[C@H]2C(=O)N2CCC[C@H]2C(=O)N[C@@H](CCCNC(=N)N)C(=O)N[C@@H](CCCNC(=N)N)C(=O)N[C@@H](CCSC)C(=O)N[C@@H](CCCCN)C(=O)N[C@@H](Cc2c[nH]c3ccccc23)C(=O)N[C@@H](CCCCN)C(=O)N[C@@H](CCCCN)C(=O)O)NC(=O)[C@H](Cc2ccccc2)NC(=O)[C@H](CO)NC(=O)[C@H](CC(=O)O)NC(=O)[C@@H]2CCCN2C(=O)[C@H](CCCC)NC(=O)[C@H](CCCCN)NC(=O)[C@H](CCCCN)NC1=O [compound 26] (H-AP[Phe(3-Cl)][hCys][Nle]KK[Nle]PDSFCKPPRRMKWKK-OH; disulfide 4-13),–,–,62.7 ± 5.9,> 1000,–
CCCC[C@@H]1NC(=O)[C@H](CCCCN)NC(=O)[C@H](CCCCN)NC(=O)[C@H](CC(C)C)NC(=O)[C@@H](NC(=O)[C@H](Cc2cccc(Cl)c2)NC(=O)[C@@H]2CCCN2C(=O)[C@@H](N)C(C)C)CCSSC[C@@H](C(=O)N[C@@H](CCCCN)C(=O)N2CCC[C@H]2C(=O)N2CCC[C@H]2C(=O)N[C@@H](CCCNC(=N)N)C(=O)N[C@@H](CCCNC(=N)N)C(=O)N[C@@H](CCSC)C(=O)N[C@@H](CCCCN)C(=O)N[C@@H](Cc2c[nH]c3ccccc23)C(=O)N[C@@H](CCCCN)C(=O)N[C@@H](CCCCN)C(=O)O)NC(=O)[C@H](Cc2ccccc2)NC(=O)[C@H](CO)NC(=O)[C@H](C)NC(=O)[C@@H]2CCCN2C1=O [compound 23] (H-VP[Phe(3-Cl)][hCys]LKK[Nle]PASFCKPPRRMKWKK-OH; disulfide 4-13),–,–,37.2 ± 1,129 ± 26.4,–
CCCC[C@@H]1NC(=O)[C@H](CCCCN)NC(=O)[C@H](CCCCN)NC(=O)[C@H](CC(C)C)NC(=O)[C@@H](NC(=O)[C@H](Cc2cccc(Cl)c2)NC(=O)[C@@H]2CCCN2C(=O)[C@@H](N)C(C)C)CCSSC[C@@H](C(=O)N[C@@H](CCCCN)C(=O)N2CCC[C@H]2C(=O)N2CCC[C@H]2C(=O)N[C@@H](CCCNC(=N)N)C(=O)N[C@@H](CCCNC(=N)N)C(=O)N[C@@H](CCSC)C(=O)N[C@@H](CCCCN)C(=O)N[C@@H](Cc2c[nH]c3ccccc23)C(=O)N[C@@H](CCCCN)C(=O)N[C@@H](CCCCN)C(=O)O)NC(=O)[C@H](Cc2ccccc2)NC(=O)[C@H](CO)NC(=O)[C@H](CC(=O)O)NC(=O)[C@@H]2CCCN2C1=O [compound 27] (H-VP[Phe(3-Cl)][hCys]LKK[Nle]PDSFCKPPRRMKWKK-OH; disulfide 4-13),–,–,60.2 ± 15.2,< 1000,–
VP(3-Cl)F-Hcy-LKK-Nle-PASFCKPP RRMKWKK [SEQ ID NO.: 23],–,–,–,–,YAP inhibitory activity [1]: best inhibitory activity
VP(3-Cl)F-LKK-Hcy-Nle-PASFKPPC RRMKWKK [SEQ ID NO.: 33],–,–,–,–,YAP inhibitory activity [1]: best inhibitory activity
CCCC[C@@H]1NC(=O)[C@H](CCCCN)NC(=O)[C@H](CCCCN)NC(=O)[C@H](CC(C)C)NC(=O)[C@H](Cc2cccc(Cl)c2)NC(=O)[C@@H](NC(=O)[C@@H]2CCCN2C(=O)[C@@H](N)C(C)C)CCSSC[C@@H](C(=O)N[C@@H](Cc2ccccc2)C(=O)N[C@@H](CCCCN)C(=O)N2CCC[C@H]2C(=O)N2CCC[C@H]2C(=O)N[C@@H](CCCNC(=N)N)C(=O)N[C@@H](CCCNC(=N)N)C(=O)N[C@@H](CCSC)C(=O)N[C@@H](CCCCN)C(=O)N[C@@H](Cc2c[nH]c3ccccc23)C(=O)N[C@@H](CCCCN)C(=O)N[C@@H](CCCCN)C(=O)O)NC(=O)[C@H](CO)NC(=O)[C@H](C)NC(=O)[C@@H]2CCCN2C1=O [compound 31] (H-VP[hCys][Phe(3-Cl)]LKK[Nle]PASCFKPPRRMKWKK-OH; disulfide 3-12),–,–,16.2 ± 1.9,107 ± 23.2,–
CSCC[C@H](NC(=O)[C@H](CCC(=O)O)NC(=O)[C@H](Cc1c[nH]c2ccccc12)NC(=O)CNC(=O)[C@H](C)NC(=O)[C@@H]1CCCN1C(=O)[C@H](CCCCN)NC(=O)[C@H](CCCCN)NC(=O)[C@H](Cc1c[nH]c2ccccc12)NC(=O)[C@H](CCCCN)NC(=O)[C@H](CCSC)NC(=O)[C@H](CCCNC(=N)N)NC(=O)[C@@H](N)CCCNC(=N)N)C(=O)N[C@@H](C)C(=O)N[C@@H](CCCCN)C(=O)N[C@H](C(=O)N[C@@H](CO)C(=O)N[C@@H](CO)C(=O)NCC(=O)N[C@@H](CCC(N)=O)C(=O)N[C@@H](CCCNC(=N)N)C(=O)N[C@@H](Cc1ccc(O)cc1)C(=O)N[C@@H](Cc1ccccc1)C(=O)O)[C@@H](C)O [SEQ ID NO.: 20],444 ± 46.5,> 1000,–,–,–
VP(3-Cl)F-Hcy-LRK-Nle-PASFCKPP RRMKWKK [SEQ ID NO.: 21],–,–,–,–,YAP inhibitory activity [1]: best inhibitory activity
